# Measured values from paper PMC11714206, “Massively Parallel Screening of Toll/Interleukin‐1 Receptor (TIR)‐Derived Peptides Reveals Multiple Toll‐Like Receptors (TLRs)‐Targeting Immunomodulatory Peptides” (Advanced Science, 2024).
# Target: T1, MyD88^TIR (Homo sapiens, UniProt Q99836)
# T1 construct: MyD88 (residues 148–296); 6xHis; made in house; host or cells: E. coli BL21 (DE3)
# Experiment: T‐Surf phage library (P8 and P3) selection against MyD88^TIR, four rounds, NGS read counts
# Format: binding
# Conditions: for P3_MyD88 Rank (after) / P3_MyD88 Rank (before): P3 library; for P8_MyD88 Rank (after) / P8_MyD88 Rank (before): P8 library; for Population: 4th round of selection against MyD88 TIR, share of NGS reads
# Method in brief: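 Four panning rounds on TIR domain adsorbed at 5 µg mL^−1; binding 1 h at 20–22 °C, elution with 100 mM HCl. Output: NGS read counts of round‐4 pools versus naïve library.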
# [1] = selection against MyD88, rank after grouping
# [2] = selection against MyD88, rank before grouping
# [3] = P3_MyD88: rank by count after grouping
# [4] = P3_MyD88: rank by count before grouping
# [5] = 4R selection against MyD88, rank after grouping
# [6] = 4R selection against MyD88, rank before grouping
# [7] = P8_MyD88: rank by count after grouping
# [8] = P8_MyD88: rank by count before grouping
# [9] = selection against MyD88 TIR, rank by count after grouping
# [10] = selection against MyD88 TIR, rank by count before grouping
# [11] = selection against MyD88, rank by count after grouping
# [12] = selection against MyD88, rank by count before grouping
# [13] = P3_MyD88 pool: P3 T-Surf phage library
# [14] = P8_MyD88: rank by NGS read count after grouping
# [15] = P8_MyD88: rank by NGS read count before grouping
# [16] = P8_MyD88 pool: P8 T-Surf phage library
# T1 sequence (Q99836 148-296): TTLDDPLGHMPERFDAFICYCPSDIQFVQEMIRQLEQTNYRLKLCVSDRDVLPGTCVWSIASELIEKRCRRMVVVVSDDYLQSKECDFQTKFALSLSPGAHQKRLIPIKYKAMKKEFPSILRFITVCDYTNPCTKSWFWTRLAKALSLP
sequence,measurement,setting,value
LSRVTSVHDARGLGGI,P3_MyD88 Rank (after),[1],564
same,P3_MyD88 Rank (before),[2],2395
KEVEGWRDALTKAANL,Rank (after),[3],138
same,Rank (before),[4],3640
MFGGDTFMIFWILLA,P8_MyD88 Rank (after),[5],593
same,P8_MyD88 Rank (before),[6],3670
DPQELDGFYERLVSLF,Rank (after),[7],401
same,Rank (before),[8],3015
SSFSEGLWRLLELRKK,P3_MyD88 Rank (after),[9],191
same,P3_MyD88 Rank (before),[10],3251
VANILGYHCIDWEHFVGIED,P8_MyD88 Rank (after),[11],722
same,P8_MyD88 Rank (before),[12],2169
SSFREGLWRLLELRKN,P3_MyD88 Rank (after),[5],588
same,P3_MyD88 Rank (before),[6],3169
PQELEWFYERPVSLML,Rank (after),[7],458
same,Rank (before),[8],3506
LVAHEISKKKKIFATI,Population,[13],0.00291%
NSFREGLWRLVELSKK,P3_MyD88 Rank (after),[1],535
same,P3_MyD88 Rank (before),[2],3557
AWIREQLRTALKERPP,P3_MyD88 Rank (after),[5],595
same,P3_MyD88 Rank (before),[6],1975
GEVPRYIFTGHLHATQ,P3_MyD88 Rank (after),[5],633
same,P3_MyD88 Rank (before),[6],1826
NYASSSWALNELLEILK,P8_MyD88 Rank (after),[1],506
same,P8_MyD88 Rank (before),[2],3849
EWNRKQKRPDQKERLQ,P3_MyD88 Rank (after),[5],608
same,P3_MyD88 Rank (before),[6],2185
WVFASNLETFWARLYY,P8_MyD88 Rank (after),[5],599
same,P8_MyD88 Rank (before),[6],1388
DPQDLAWVYERLVSPV,P8_MyD88 Rank (after),[5],628
same,P8_MyD88 Rank (before),[6],2733
NELVHVWSSKANSLVGQ,Rank (after),[3],186
same,Rank (before),[4],1250
QLIGCGNTFFRWKKKIR,Rank (after),[14],1002
same,Rank (before),[15],3572
DYANSSWALDELWLIL,P8_MyD88 Rank (after),[1],510
same,P8_MyD88 Rank (before),[2],2544
FRGEDIADNFLSHLVVAL,P8_MyD88 Rank (after),[9],234
same,P8_MyD88 Rank (before),[10],371
FDASSSWALDELLRILY,Rank (after),[7],404
same,Rank (before),[8],813
KLDSARMRKVQRLRET,P3_MyD88 Rank (after),[1],576
same,P3_MyD88 Rank (before),[2],3706
WALDELLQILHAKETM,P8_MyD88 Rank (after),[5],598
same,P8_MyD88 Rank (before),[6],1458
NFGYSTWALDELVKIM,Rank (after),[7],123
same,Rank (before),[8],132
same,Population,[16],0.0135%
SSFREGLCRLLELSKQ,P3_MyD88 Rank (after),[11],725
same,P3_MyD88 Rank (before),[12],3201
QYLRWPEDFQDVGWFL,Rank (after),[7],144
same,Rank (before),[8],161
same,Population,[16],0.00925%
RTLFENLWESVYNISQ,P3_MyD88 Rank (after),[11],690
same,P3_MyD88 Rank (before),[12],2633
SSFREGPWRLLALSKK,P3_MyD88 Rank (after),[1],509
same,P3_MyD88 Rank (before),[2],3216
YASSSWYRFELVDILW,Rank (after),[14],973
same,Rank (before),[15],1874
SSFRERLWRLLELIKK,P3_MyD88 Rank (after),[5],644
same,P3_MyD88 Rank (before),[6],3246
LSRVPSVHDFRGFATI,Rank (after),[3],111
same,Rank (before),[4],682
EWIREQFRRALKERLP,P3_MyD88 Rank (after),[1],503
same,P3_MyD88 Rank (before),[2],2131
NELVKVWSSKANRLVG,Rank (after),[3],393
same,Rank (before),[4],3447
LGYHCHDREYFVGIED,P8_MyD88 Rank (after),[11],717
same,P8_MyD88 Rank (before),[12],3311
DHHLDLPRGKALTPEILG,P3_MyD88 Rank (after),[5],657
same,P3_MyD88 Rank (before),[6],2012
DPQDLDWFWVRLIEAL,P8_MyD88 Rank (after),[1],493
same,P8_MyD88 Rank (before),[2],2746
DPQDLDWFYERLEPV,P8_MyD88 Rank (after),[1],530
same,P8_MyD88 Rank (before),[2],2783
DPQNLQWFYERLVILI,Rank (after),[7],392
same,Rank (before),[8],3031
YPQDLQWLYERLGSLI,Rank (after),[14],892
same,Rank (before),[15],2104
LFWANLRAALQGDLPY,Rank (after),[7],130
same,Rank (before),[8],143
same,Population,[16],0.0116%
SSFREGLRRLLELSKK,Population,[13],0.00291%
DTALTNSGFHTLRDND,Rank (after),[3],450
same,Rank (before),[4],2091
SSFREGLWSLLELSKN,Rank (after),[3],183
same,Rank (before),[4],3200
FDASTWFFQEWARFL,Rank (after),[14],930
same,Rank (before),[15],1313
WALGELLQILQARERC,Rank (after),[14],943
same,Rank (before),[15],1408
SPLSYMWLDELVEIME,Rank (after),[14],944
same,Rank (before),[15],3764
DPQDLDWCYERLVSRC,Rank (after),[7],461
same,Rank (before),[8],2817
DPQDLDWFYERLASLL,Rank (after),[7],135
same,Rank (before),[8],720
DPQLLVCFYERLVSLF,P8_MyD88 Rank (after),[5],640
same,P8_MyD88 Rank (before),[6],3023
YASSSWALDELWLILEQR,Rank (after),[14],961
same,Rank (before),[15],1883
